Key:
Assay in all cases: cells
T47D = format: functional, cell-based, Homo sapiens; conditions: Homo sapiens, T47D;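 further: growth inhibition of human T47D cells, measured with a cell viability assay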
Description: SANGER: Inhibition of human T47D cell growth in a cell viability assay.

ASPC1 = format: functional, cell-based, Homo sapiens; conditions: Homo sapiens, ASPC1;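 further: growth inhibition of AsPC-1 cells, read out with a cell viability assay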
Description: SANGER: Inhibition of human AsPC-1 cell growth in a cell viability assay.

BT-549 = format: functional, cell-based, Homo sapiens; conditions: Homo sapiens, BT-549
Description: SANGER: Inhibition of human BT-549 cell growth in a cell viability assay.

SW48 = format: functional, cell-based, Homo sapiens; conditions: Homo sapiens, SW48;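 further: growth inhibition of SW48 cells, read out with a cell viability assay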
Description: SANGER: Inhibition of human SW48 cell growth in a cell viability assay.

PC-14 = format: functional, cell-based, Homo sapiens; conditions: Homo sapiens, PC-14;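 further: cell viability assay measuring inhibition of PC-14 cell growth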
Description: SANGER: Inhibition of human PC-14 cell growth in a cell viability assay.

NCI-H2228 = format: functional, cell-based, Homo sapiens; conditions: Homo sapiens, NCI-H2228;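 further: growth inhibition of human NCI-H2228 cells, read out by a cell viability assay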
Description: SANGER: Inhibition of human NCI-H2228 cell growth in a cell viability assay.

ChaGo-K-1 = format: functional, cell-based, Homo sapiens; conditions: Homo sapiens, ChaGo-K-1;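 further: growth inhibition of ChaGo-K-1 cells, read out with a cell viability assay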
Description: SANGER: Inhibition of human ChaGo-K-1 cell growth in a cell viability assay.

RPMI-2650 = format: functional, cell-based, Homo sapiens; conditions: Homo sapiens, RPMI-2650
Description: SANGER: Inhibition of human RPMI-2650 cell growth in a cell viability assay.

KYSE-520 cell line = format: functional, cell-based, Homo sapiens; conditions: Homo sapiens, KYSE-520;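 further: growth inhibition of human KYSE-520 cells, read out with a viability assay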
Description: SANGER: Inhibition of human KYSE-520 cell growth in a cell viability assay.

SK-OV-3 = format: functional, cell-based, Homo sapiens; conditions: Homo sapiens, SK-OV-3;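 further: growth inhibition of SK-OV-3 human cells, read out with a cell viability assay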
Description: SANGER: Inhibition of human SK-OV-3 cell growth in a cell viability assay.

Ca-Ski = format: functional, cell-based, Homo sapiens; conditions: Homo sapiens, Ca-Ski;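 further: cell viability assay measuring inhibition of Ca-Ski cell growth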
Description: SANGER: Inhibition of human Ca-Ski cell growth in a cell viability assay.

KYSE-70 cell line = format: functional, cell-based, Homo sapiens; conditions: Homo sapiens, KYSE-70;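 further: cell viability assay read-out, with IC50 expressing suppression of KYSE-70 cell growth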
Description: SANGER: Inhibition of human KYSE-70 cell growth in a cell viability assay.

HT-29 = format: functional, cell-based, Homo sapiens; conditions: Homo sapiens, HT-29;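 further: growth inhibition of human HT-29 cells, read out by a cell viability assay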
Description: SANGER: Inhibition of human HT-29 cell growth in a cell viability assay.

KP-4 = format: functional, cell-based, Homo sapiens; conditions: Homo sapiens, KP-4;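 further: human KP-4 cells, with growth inhibition read out through a cell viability assay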
Description: SANGER: Inhibition of human KP-4 cell growth in a cell viability assay.

HT1197 = format: functional, cell-based, Homo sapiens, HT-1197; conditions: Homo sapiens, HT1197
Description: SANGER: Inhibition of human HT-1197 cell growth in a cell viability assay.

MeWo = format: functional, cell-based, Homo sapiens; conditions: Homo sapiens, MeWo;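 further: growth inhibition of MeWo cells, determined by a cell viability readout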
Description: SANGER: Inhibition of human Mewo cell growth in a cell viability assay.

JEG-3 = format: functional, cell-based, Homo sapiens; conditions: Homo sapiens, JEG-3;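 further: growth inhibition of human JEG-3 cells, read out with a cell viability assay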
Description: SANGER: Inhibition of human JEG-3 cell growth in a cell viability assay.

ACHN = format: functional, cell-based, Homo sapiens; conditions: Homo sapiens, ACHN;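 further: cell viability read-out used to gauge how strongly growth of human ACHN cells is suppressed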
Description: SANGER: Inhibition of human ACHN cell growth in a cell viability assay.

HGC-27 = format: functional, cell-based, Homo sapiens; conditions: Homo sapiens, HGC-27;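 further: growth inhibition of human HGC-27 cells, read out in a cell viability assay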
Description: SANGER: Inhibition of human HGC-27 cell growth in a cell viability assay.

BHT-101 = format: functional, cell-based, Homo sapiens; conditions: Homo sapiens, BHT-101
Description: SANGER: Inhibition of human BHT-101 cell growth in a cell viability assay.

Ca9-22 = format: functional, cell-based, Homo sapiens; conditions: Homo sapiens, Ca9-22;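 further: growth inhibition of Ca9-22 cells, read out with a cell viability assay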
Description: SANGER: Inhibition of human Ca9-22 cell growth in a cell viability assay.

A204 = format: functional, cell-based, Homo sapiens; conditions: Homo sapiens, A204;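 further: growth inhibition of human A204 cells, read out with a cell viability assay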
Description: SANGER: Inhibition of human A204 cell growth in a cell viability assay.

SK-MEL-30 = format: functional, cell-based, Homo sapiens; conditions: Homo sapiens, SK-MEL-30;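 further: growth inhibition of SK-MEL-30 cells, determined with a cell viability assay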
Description: SANGER: Inhibition of human SK-MEL-30 cell growth in a cell viability assay.

ABC-1 = format: functional, cell-based, Homo sapiens; conditions: Homo sapiens, ABC-1;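 further: growth inhibition of human ABC-1 cells, read out by a cell viability assay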
Description: SANGER: Inhibition of human ABC-1 cell growth in a cell viability assay.

HCC38 = format: functional, cell-based, Homo sapiens; conditions: Homo sapiens, HCC38;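 further: cell viability assay on the human HCC38 cell line, with IC50 marking the concentration that inhibits cell growth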
Description: SANGER: Inhibition of human HCC38 cell growth in a cell viability assay.

LoVo = format: functional, cell-based, Homo sapiens; conditions: Homo sapiens, LoVo;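 further: growth inhibition of human LoVo cells, read out with a cell viability assay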
Description: SANGER: Inhibition of human LoVo cell growth in a cell viability assay.

NCI-H1693 = format: functional, cell-based, Homo sapiens; conditions: Homo sapiens, NCI-H1693;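 further: growth inhibition of the human cell line, read out with a cell viability assay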
Description: SANGER: Inhibition of human NCI-H1693 cell growth in a cell viability assay.

786-0 = format: functional, cell-based, Homo sapiens; conditions: Homo sapiens
Description: SANGER: Inhibition of human 786-0 cell growth in a cell viability assay.

A-431 = format: functional, cell-based, Homo sapiens; conditions: Homo sapiens, A-431;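 further: growth inhibition of A-431 cells, determined with a cell viability read-out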
Description: SANGER: Inhibition of human A431 cell growth in a cell viability assay.

RD = format: functional, cell-based, Homo sapiens; conditions: Homo sapiens, RD
Description: SANGER: Inhibition of human RD cell growth in a cell viability assay.

HLE = format: functional, cell-based, Homo sapiens; conditions: Homo sapiens, HLE;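 further: growth inhibition of human HLE cells, read out by a cell viability assay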
Description: SANGER: Inhibition of human HLE cell growth in a cell viability assay.

T84 = format: functional, cell-based, Homo sapiens; conditions: Homo sapiens, T84;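 further: growth inhibition measured with a cell viability readout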
Description: SANGER: Inhibition of human T84 cell growth in a cell viability assay.

NCI-H2029 = format: functional, cell-based, Homo sapiens; conditions: Homo sapiens, NCI-H2029;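 further: Read-out is a viability assay on the cultured cells, and IC50 is the concentration that suppresses cell growth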
Description: SANGER: Inhibition of human NCI-H2029 cell growth in a cell viability assay.

HCC1954 = format: functional, cell-based, Homo sapiens; conditions: Homo sapiens, HCC1954;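 further: growth inhibition of human HCC1954 cells, read out with a cell viability assay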
Description: SANGER: Inhibition of human HCC1954 cell growth in a cell viability assay.

CHP-212 = format: functional, cell-based, Homo sapiens; conditions: Homo sapiens, CHP-212
Description: SANGER: Inhibition of human CHP-212 cell growth in a cell viability assay.

NCI-H1651 = format: functional, cell-based, Homo sapiens; conditions: Homo sapiens, NCI-H1651;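 further: Read-out is a cell viability assay, with IC50 expressing inhibition of NCI-H1651 cell growth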
Description: SANGER: Inhibition of human NCI-H1651 cell growth in a cell viability assay.

C3A = format: functional, cell-based, Homo sapiens; conditions: Homo sapiens, C3A;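 further: growth inhibition of C3A human cells, quantified with a cell viability readout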
Description: SANGER: Inhibition of human C3A cell growth in a cell viability assay.

NCI-H1048 = format: functional, cell-based, Homo sapiens; conditions: Homo sapiens, NCI-H1048;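 further: growth inhibition of human NCI-H1048 cells, read out with a cell viability assay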
Description: SANGER: Inhibition of human NCI-H1048 cell growth in a cell viability assay.

J82 = format: functional, cell-based, Homo sapiens; conditions: Homo sapiens, J82;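 further: growth inhibition of J82 cells, read out with a cell viability assay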
Description: SANGER: Inhibition of human J82 cell growth in a cell viability assay.

| SMILES | IC50 (T47D) [µM] | IC50 (ASPC1) [µM] | IC50 (BT-549) [µM] | IC50 (SW48) [µM] | IC50 (PC-14) [µM] | IC50 (NCI-H2228) [µM] | IC50 (ChaGo-K-1) [µM] | IC50 (RPMI-2650) [µM] | IC50 (KYSE-520 cell line) [µM] | IC50 (SK-OV-3) [µM] | IC50 (Ca-Ski) [µM] | IC50 (KYSE-70 cell line) [µM] | IC50 (HT-29) [µM] | IC50 (KP-4) [µM] | IC50 (HT1197) [µM] | IC50 (MeWo) [µM] | IC50 (JEG-3) [µM] | IC50 (ACHN) [µM] | IC50 (HGC-27) [µM] | IC50 (BHT-101) [µM] | further results |
| --- | --- | --- | --- | --- | --- | --- | --- | --- | --- | --- | --- | --- | --- | --- | --- | --- | --- | --- | --- | --- | --- |
| CC(C)CCN1c2nc(Nc3cc(F)c(O)c(F)c3)ncc2N(C)C(=O)C1C (stereo unspecified) | > 5 | > 5 | > 5 | 3.43 | > 5 | > 5 | > 5 | > 5 | > 5 | > 5 | 3.48 | > 5 | > 5 | > 5 | > 5 | > 5 | 3.69 | > 5 | > 5 | 4.11 | IC50 (Ca9-22): 2.66 µM; IC50 (A204): > 5 µM; IC50 (SK-MEL-30): > 5 µM; IC50 (ABC-1): > 5 µM; IC50 (HCC38): > 5 µM; IC50 (LoVo): 1.47 µM; IC50 (NCI-H1693): > 5 µM; IC50 (786-0): > 5 µM; IC50 (A-431): 4.14 µM; IC50 (RD): 3.43 µM; IC50 (HLE): > 5 µM; IC50 (T84): > 5 µM; IC50 (NCI-H2029): 1.97 µM; IC50 (HCC1954): 4.26 µM; IC50 (CHP-212): > 5 µM; IC50 (NCI-H1651): > 5 µM; IC50 (C3A): > 5 µM; IC50 (NCI-H1048): 2.68 µM; IC50 (J82): > 5 µM |
| CS(=O)(=O)c1ccc(C(=O)Nc2ccc(Cl)c(-c3ccccn3)c2)c(Cl)c1 [VISMODEGIB] | > 10 | > 10 | > 10 | > 10 | > 10 | > 10 | > 10 | > 10 | > 10 | > 10 | > 10 | > 10 | > 10 | > 10 | > 10 | > 10 | > 10 | > 10 | > 10 | > 10 | IC50 (Ca9-22): > 10 µM; IC50 (A204): > 10 µM; IC50 (SK-MEL-30): > 10 µM; IC50 (ABC-1): > 10 µM; IC50 (HCC38): > 10 µM; IC50 (LoVo): > 10 µM; IC50 (NCI-H1693): > 10 µM; IC50 (786-0): > 10 µM; IC50 (A-431): > 10 µM; IC50 (RD): > 10 µM; IC50 (HLE): > 10 µM; IC50 (T84): > 10 µM; IC50 (NCI-H2029): > 10 µM; IC50 (HCC1954): > 10 µM; IC50 (CHP-212): > 10 µM; IC50 (NCI-H1651): > 10 µM; IC50 (C3A): > 10 µM; IC50 (NCI-H1048): > 10 µM; IC50 (J82): > 10 µM |
| Cc1cn(-c2cc(NC(=O)c3ccc(C)c(Nc4nccc(-c5cccnc5)n4)c3)cc(C(F)(F)F)c2)cn1 [NILOTINIB] | > 2 | > 2 | > 2 | > 2 | > 2 | > 2 | > 2 | > 2 | > 2 | > 2 | > 2 | > 2 | > 2 | > 2 | > 2 | > 2 | > 2 | > 2 | > 2 | 0.643 | IC50 (Ca9-22): > 2 µM; IC50 (A204): 1.57 µM; IC50 (SK-MEL-30): > 2 µM; IC50 (ABC-1): > 2 µM; IC50 (HCC38): > 2 µM; IC50 (LoVo): > 2 µM; IC50 (NCI-H1693): > 2 µM; IC50 (786-0): > 2 µM; IC50 (A-431): > 2 µM; IC50 (RD): > 2 µM; IC50 (HLE): > 2 µM; IC50 (T84): > 2 µM; IC50 (NCI-H2029): > 2 µM; IC50 (HCC1954): > 2 µM; IC50 (CHP-212): > 2 µM; IC50 (NCI-H1651): > 2 µM; IC50 (C3A): > 2 µM; IC50 (NCI-H1048): > 2 µM; IC50 (J82): > 2 µM |
| CCN(CC)CCCCNc1ncc2cc(-c3cc(OC)cc(OC)c3)c(NC(=O)NC(C)(C)C)nc2n1 [PD-173074] | > 2 | > 2 | > 2 | > 2 | > 2 | > 2 | > 2 | > 2 | > 2 | > 2 | > 2 | > 2 | > 2 | > 2 | > 2 | > 2 | > 2 | > 2 | > 2 | > 2 | IC50 (Ca9-22): > 2 µM; IC50 (A204): > 2 µM; IC50 (SK-MEL-30): > 2 µM; IC50 (ABC-1): > 2 µM; IC50 (HCC38): > 2 µM; IC50 (LoVo): > 2 µM; IC50 (NCI-H1693): > 2 µM; IC50 (786-0): > 2 µM; IC50 (A-431): > 2 µM; IC50 (RD): > 2 µM; IC50 (HLE): > 2 µM; IC50 (T84): > 2 µM; IC50 (NCI-H2029): > 2 µM; IC50 (HCC1954): > 2 µM; IC50 (CHP-212): > 2 µM; IC50 (NCI-H1651): > 2 µM; IC50 (C3A): > 2 µM; IC50 (NCI-H1048): > 2 µM; IC50 (J82): > 2 µM |

Source: ChEMBL document CHEMBL1201861, “Genomics of Drug Sensitity in Cancer screening data, Wellcome Trust Sanger Institute”
